From ChEMBL document CHEMBL4308851, “Alkyl-guanidine Compounds as Potent Broad-Spectrum Antibacterial Agents: Chemical Library Extension and Biological Characterization” (J Med Chem, 2018)
Converted amounts (≈) assume the structure as drawn. The source made the active and inactive calls. The rule behind the calls is not given here.

Legend:
Escherichia coli [1] = assay: Disruption of Escherichia coli MG1655 ATCC 47076 outer membrane integrity assessed as induction of NPN uptake after 30 mins by NPN fluorescence-based assay; type: functional, organism-based; conditions: K-12 substr. MG1655 ATCC 47076
Escherichia coli [2] = assay: Antibacterial activity against Escherichia coli CCUG deficient in potF gene; type: functional, organism-based
Pseudomonas aeruginosa [3] = assay: Disruption of inner membrane integrity in Pseudomonas aeruginosa PAO1 ATCC 15692 co-expressing pMP2200::PrrnB plasmid assessed as induction of OPNG conversion at 256 ug/ml measured at 10 mins intervals for 1 hr; type: functional, organism-based
Albumin [4] = biological target: T1, Albumin (Homo sapiens, UniProt P02768); assay: Binding affinity to human serum albumin assessed as Bmax after 30 mins by fluorescence-based assay; type: ADME; conditions: isolated protein, 0.5 h
[5] = system: Stenotrophomonas maltophilia; assay: Antibacterial activity against Stenotrophomonas maltophilia isolate 634/08 after 18 hrs by microdilution broth method; type: functional; conditions: isolate 634/08, 18 h
HeLa [6] = assay: Cytotoxicity against human HeLa cells assessed as reduction in cell viability at 256 ug/ml after 24 hrs by celltox green-based assay relative to control
Escherichia coli [7] = assay: Antibacterial activity against Escherichia coli CCUG after 18 hrs by microdilution broth method
Pseudomonas aeruginosa [8] = assay: Antibiofilm activity against Pseudomonas aeruginosa PAO1 ATCC 15692 assessed as effect on biofilm 3D structures at half MIC concentration after 24 hrs by AO-staining based confocal microscopy; type: functional, organism-based
[9] = Binding affinity to AGP (unknown origin) assessed as Bmax after 30 mins by fluorescence-based assay; type: ADME; conditions: human, isolated protein, 0.5 h
Acinetobacter baumannii [10] = assay: Disruption of Acinetobacter baumannii ATCC 19606 outer membrane integrity assessed as induction of NPN uptake after 30 mins by NPN fluorescence-based assay; type: functional, organism-based; conditions: ATCC 19606 = CIP 70.34 = JCM 6841
Escherichia coli [11] = assay: Antibiofilm activity against Escherichia coli MG1655 ATCC 47076 at half MIC concentration after 24 hrs by crystal violet-based assay; type: functional, organism-based; conditions: K-12 substr. MG1655 ATCC 47076
Escherichia coli [12] = assay: Antibiofilm activity against Escherichia coli MG1655 ATCC 47076 assessed as effect on biofilm 3D structures at half MIC concentration after 24 hrs by AO-staining based confocal microscopy; type: functional, organism-based; conditions: K-12 substr. MG1655 ATCC 47076
Staphylococcus aureus = assay: Antibacterial activity against Staphylococcus aureus ATCC 25923 after 18 hrs by microdilution broth method; type: functional; conditions: ATCC 25923, 18 h
Enterococcus faecalis = assay: Antibacterial activity against Enterococcus faecalis ATCC 19433 after 18 hrs by microdilution broth method; type: functional; conditions: ATCC 19433, 18 h
Acinetobacter baumannii [13] = assay: Antibacterial activity against Acinetobacter baumannii isolate AC-54/97 after 18 hrs by microdilution broth method; type: functional; conditions: isolate AC-54/97, 18 h
Acinetobacter baumannii [14] = assay: Antibiofilm activity against Acinetobacter baumannii ATCC 19606 assessed as effect on biofilm 3D structures at half MIC concentration after 24 hrs by AO-staining based confocal microscopy; type: functional, organism-based; conditions: ATCC 19606 = CIP 70.34 = JCM 6841
Pseudomonas aeruginosa [15] = assay: Antibiofilm activity against Pseudomonas aeruginosa PAO1 ATCC 15692 at half MIC concentration after 24 hrs by crystal violet-based assay; type: functional, organism-based
Escherichia coli [16] = assay: Antibacterial activity against Escherichia coli MG1655 cultured in MHB supplemented with 10% human serum assessed as reduction in bacterial growth at 1 ug/ml after 24 hrs; type: functional, organism-based; conditions: K-12 substr. MG1655
Escherichia coli [17] = assay: Antibacterial activity against Escherichia coli CCUG deficient in potH gene; type: functional, organism-based
Escherichia coli [18] = assay: Ratio of MIC for Escherichia coli MG1655 cultured in MHB supplemented with 10% human serum after 24 hrs to MIC for Escherichia coli MG1655 cultured in absence of 10% human serum; type: functional, K-12 substr. MG1655
Klebsiella pneumoniae [19] = assay: Antibacterial activity against Klebsiella pneumoniae ATCC […] after 18 hrs by microdilution broth method; type: functional
Escherichia coli [20] = assay: Induction of cytoplasmic membrane depolarization in Escherichia coli at 16 ug/ml by DiSC3-5-fluorescence based assay
Klebsiella pneumoniae [21] = assay: Antibacterial activity against Klebsiella pneumoniae isolate SI-081 after 18 hrs by microdilution broth method; type: functional; conditions: isolate SI-081, 18 h
Escherichia coli [22] = assay: Antibacterial activity against Escherichia coli CCUG deficient in potD gene; type: functional, organism-based
Escherichia coli [23] = assay: Antibacterial activity against Escherichia coli CCUG deficient in potA gene; type: functional, organism-based
[24] = Binding affinity to AGP (unknown origin) assessed as dissociation constant after 30 mins by fluorescence-based assay; type: ADME, Homo sapiens
Streptococcus pyogenes = assay: Antibacterial activity against Streptococcus pyogenes ATCC 12344 after 18 hrs by microdilution broth method; type: functional; conditions: ATCC 12344, 18 h
Acinetobacter baumannii [25] = assay: Antibiofilm activity against Acinetobacter baumannii ATCC 19606 at half MIC concentration after 24 hrs by crystal violet-based assay; type: functional, organism-based; conditions: ATCC 19606 = CIP 70.34 = JCM 6841
[26] = Hemolytic activity against human erythrocytes assessed as induction of hemolysis at 64 ug/ml after 30 mins; type: cell-based, Erythrocyte; conditions: read-out: Activity
[27] = Metabolic stability in human liver microsomes at 50 uM after 60 mins in presence of NADPH by LC-UV-MS analysis; type: ADME, Microsome; conditions: read-out: Stability
Escherichia coli [28] = assay: Antibacterial activity against Escherichia coli CCUG deficient in potE gene; type: functional, organism-based
HeLa [29] = assay: Cytotoxicity against human HeLa cells assessed as reduction in cell viability at 16 ug/ml after 24 hrs by celltox green-based assay
Escherichia coli [30] = assay: Bactericidal activity against Escherichia coli CCUG assessed as log reduction in CFU at 2 times MIC concentration after 1 hr by time kill assay; type: functional
Pseudomonas aeruginosa [31] = assay: Antibacterial activity against Pseudomonas aeruginosa ATCC 27853 after 18 hrs by microdilution broth method; type: functional; conditions: ATCC 27853, 18 h
Escherichia coli [32] = assay: Disruption of inner membrane integrity in Escherichia coli MG1655 assessed as induction of […] conversion at 256 ug/ml measured at 10 mins intervals for 1 hr; type: functional, organism-based; conditions: K-12 substr. MG1655
Acinetobacter baumannii [33] = assay: Disruption of inner membrane integrity in Acinetobacter baumannii ATCC 19606 co-expressing pMP2200::PrrnB plasmid assessed as induction of […] conversion at 256 ug/ml measured at 10 mins intervals for 1 hr; type: functional, organism-based; conditions: ATCC 19606 = CIP 70.34 = JCM 6841
Escherichia coli [34] = assay: Antibacterial activity against Escherichia coli CCUG deficient in potI gene; type: functional, organism-based
in vitro [35] = conditions: human, Caco-2
Description: Apparent permeability across apical to basolateral side in human Caco2 cells at 10 uM after 120 mins by LC-MS/MS analysis

Bacillus spizizenii = assay: Antibacterial activity against Bacillus subtilis ATCC 6633 after 18 hrs by microdilution broth method; type: functional; conditions: ATCC 6633, 18 h
Escherichia coli [36] = assay: Antibacterial activity against Escherichia coli MG1655 cultured in MHB supplemented with 5 to 40 mg/ml at 1 to 2 ug/ml after 24 hrs; type: functional, organism-based; conditions: K-12 substr. MG1655
[37] = 1-Octanol/Tris buffer distribution coefficient, log D of the compound at pH 7.4 by HPLC analysis; type: physicochemical
Enterobacter cloacae = assay: Antibacterial activity against Enterobacter cloacae isolate VA-417/02 after 18 hrs by microdilution broth method; type: functional; conditions: isolate VA-417/02, 18 h
in vitro [38] = conditions: human, Caco-2; remark: listed apart in the source
Description: Efflux ratio of apparent permeability in human Caco2 cells at 10 uM after 120 mins by LC-MS/MS analysis

Escherichia coli [39] = assay: Antibacterial activity against Escherichia coli CCUG deficient in potG gene; type: functional, organism-based
Albumin [40] = biological target: T1, Albumin; assay: Binding affinity to human serum albumin assessed as dissociation constant after 30 mins by fluorescence-based assay; type: ADME
Pseudomonas aeruginosa [41] = assay: Disruption of Pseudomonas aeruginosa PAO1 ATCC 15692 outer membrane integrity assessed as induction of NPN uptake after 30 mins by NPN fluorescence-based assay; type: functional, organism-based
Escherichia coli [42] = assay: Antibacterial activity against Escherichia coli CCUG deficient in potB gene; type: functional, organism-based
Acinetobacter baumannii [43] = assay: Antibacterial activity against Acinetobacter baumannii ATCC 17978 after 18 hrs by microdilution broth method; type: functional; conditions: ATCC 17978, 18 h
[44] = Apparent permeability of the compound after 5 hrs by PAMPA; type: ADME
Burkholderia cepacia = assay: Antibacterial activity against Burkholderia cepacia isolate SI-R2 after 18 hrs by microdilution broth method; type: functional; conditions: isolate SI-R2, 18 h
Escherichia coli [45] = assay: Antibacterial activity against Escherichia coli CCUG assessed as inhibition of microbial growth at >32 ug/ml measured up to 48 hrs; type: functional, organism-based

T1 sequence (P02768 whole entry): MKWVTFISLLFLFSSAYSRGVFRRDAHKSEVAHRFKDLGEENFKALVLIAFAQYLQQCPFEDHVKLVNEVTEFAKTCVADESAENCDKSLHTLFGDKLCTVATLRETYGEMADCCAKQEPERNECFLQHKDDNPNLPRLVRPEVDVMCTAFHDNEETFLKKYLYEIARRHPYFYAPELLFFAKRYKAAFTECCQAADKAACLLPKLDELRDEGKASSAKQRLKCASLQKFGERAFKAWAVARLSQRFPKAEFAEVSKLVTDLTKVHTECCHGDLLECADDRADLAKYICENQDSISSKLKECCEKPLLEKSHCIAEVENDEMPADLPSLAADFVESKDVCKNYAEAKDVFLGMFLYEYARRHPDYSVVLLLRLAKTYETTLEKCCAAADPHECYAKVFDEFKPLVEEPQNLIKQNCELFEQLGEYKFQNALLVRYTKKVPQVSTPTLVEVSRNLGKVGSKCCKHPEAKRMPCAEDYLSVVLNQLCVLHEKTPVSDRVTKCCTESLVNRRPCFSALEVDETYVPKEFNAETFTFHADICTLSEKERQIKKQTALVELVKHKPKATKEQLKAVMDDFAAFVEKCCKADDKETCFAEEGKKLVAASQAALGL

Compound: N=C(N)NCCCCCCCCN(CCCCCCCCNC(=N)NCC1CC1)C(=O)N(CCCCCCCCNC(=N)N)CCCCCCCCNC(=N)NCC1CC1
- Activity (Escherichia coli [1]): Dose-dependent effect
- Activity (Escherichia coli [2]): Active
- Activity (Pseudomonas aeruginosa [3]): inactive
- Bmax (Albumin [4]): 14%
- MIC [5]: 16 mg/L (≈ 18.9 µM)
- Activity (HeLa [6]): <= 60%
- MIC (Escherichia coli [7]): 2 mg/L (≈ 2.37 µM)
- Activity (Pseudomonas aeruginosa [8]): inactive
- Bmax [9]: 30.2%
- Activity (Acinetobacter baumannii [10]): Dose-dependent effect
- Activity (Escherichia coli [11]): inactive
- Activity (Escherichia coli [12]): inactive
- MIC (Staphylococcus aureus): 2 mg/L (≈ 2.37 µM)
- MIC (Enterococcus faecalis): 2 mg/L (≈ 2.37 µM)
- MIC (Acinetobacter baumannii [13]): 2 mg/L (≈ 2.37 µM)
- Activity (Acinetobacter baumannii [14]): inactive
- Activity (Pseudomonas aeruginosa [15]): inactive
- growth inhibition (GI) (Escherichia coli [16]): inactive
- Activity (Escherichia coli [17]): Active
- Ratio (Escherichia coli [18]): 2
- MIC (Klebsiella pneumoniae [19]): 2 mg/L (≈ 2.37 µM)
- Activity (Escherichia coli [20]): inactive
- MIC (Klebsiella pneumoniae [21]): 2 mg/L (≈ 2.37 µM)
- Activity (Escherichia coli [22]): Active
- Activity (Escherichia coli [23]): Active
- Kd [24]: 0.11 µM
- MIC (Streptococcus pyogenes): 1 mg/L (≈ 1.18 µM)
- Activity (Acinetobacter baumannii [25]): inactive
- hemolysis at 0.5 h, 64 ug/ml [26]: 0 to 7%
- remaining at 1 h, 50 µM [27]: > 99%
- Activity (Escherichia coli [28]): Active
- Activity (HeLa [29]): Non-Toxic
- Activity (Escherichia coli [30]): >=4 log10CFU/ml
- MIC (Pseudomonas aeruginosa [31]): 8 mg/L (≈ 9.46 µM)
- Activity (Escherichia coli [32]): inactive
- Activity (Acinetobacter baumannii [33]): inactive
- Activity (Escherichia coli [34]): Active
- Papp A→B at 2 h, 10 µM (in vitro [35]): 1.9 nm/s
- MIC (Bacillus spizizenii): 0.5 mg/L (≈ 0.591 µM)
- Activity (Escherichia coli [36]): Active
- logD [37]: -0.79
- MIC (Enterobacter cloacae): 1 mg/L (≈ 1.18 µM)
- efflux ratio at 2 h, 10 µM (in vitro [38]): 0.65
- Activity (Escherichia coli [39]): Active
- Kd (Albumin [40]): 23.3 µM
- Activity (Pseudomonas aeruginosa [41]): Dose-dependent effect
- Activity (Escherichia coli [42]): Active
- MIC (Acinetobacter baumannii [43]): 8 mg/L (≈ 9.46 µM)
- Papp at 5 h [44]: 16 nm/s
- MIC (Burkholderia cepacia): 16 mg/L (≈ 18.9 µM)
- Activity (Escherichia coli [45]): Active
